# Assay results as given in patent US20230332232A1, “COMPOSITIONS AND METHODS FOR DIAGNOSING AND TREATING A DYSTONIA” (Duke University, priority 2020, published 2023).
# Test system: DYT1 knockin (Tor1a^delGAG/+) murine embryonic fibroblasts (MEFs)
# Assay: microRNA-seq of EVs from DYT1 MEFs treated with drug, compared with non-treated DYT1 MEFs
# Assay type: cell-based, mouse
# Settings: for Abs Z Score Sum (Geno + RTV) / RTV Direction Opposite dE?: EVs of DYT1 (Het) MEFs
# Experimental: In addition to proteomic analysis, total RNA-seq and microRNA-seq was performed on RNA isolated in parallel from the EV samples of Cohort 2. As with the proteomic analysis, one biological replicate was prepared from 3 distinct biological clonal cell lines for each genotype. Here, EVs were isolated from conditioned cell culture media by 18 hour ultracentrifugation at 100,000 g. RNA was extracted using the Qiagen miRNeasy Micro Kit (Cat. No. 217084) according to the manufacturer's protocol. Two RNA fractions were extracted from each sample, one enriched in coding and non-coding RNA species>200 nt (“Total RNA” fraction) and one enriched for small RNAs<200 nt (“miRNA” fraction). RNA samples were then submitted to the Duke Sequencing and Genomic Technologies shared resource for further quality control and sequencing. Samples were assessed for concentration and integrity by Qubit and Fragment Analyzer. The miRNA fractions were 4.16 ng/μL-47.57 ng/μL and total RNA fractions were 3.8 ng/μL-43.6 ng/μL. The small RNA library was prepared using the QIAseq miRNA Library Kit (Cat No./ID: 331505) and sequenced on the Illumina NextSeq 500 High-Output platform with 75 bp single-reads. The total RNA library was prepared using the Illumina TruSeq Stranded Total RNA-seq Kit with Ribozero Gold ribosomal RNA reduction and sequenced on the Illumina NovaSeq 6000 S1 platform with 100 bp paired-end reads. Sequencer lane pooling and read depth are attached in the Excel data summary (See “RNA QC” Tab). Data processing and analysis were performed in collaboration with the Duke Genomic Analysis and Bioinformatics shared resource. RNA-seq data was processed using the TrimGalore toolkit (http://www.bioinformatics.babraham.ac.uk/projects/trim_galore), which employs Cutadapt(Martin M. (2011) EMBnet.journal. 17(1):10-12) to trim low quality bases and Illumina sequencing adapters from the 3' end of the reads. Only reads that were 20 nt or longer after trimming were kept for further analysis. Reads were mapped to the mouse genome and transcriptome ([…], et al. (2012) Nucleic Acids Res. 40(Database issue):[…]-97) using the STAR RNA-seq alignment tool (Dobin A, et al. (2013). Bioinformatics. 29(1):15-21). If the reads mapped to a single genomic location, then they were kept for subsequent analysis. Gene counts were compiled using the HTSeq tool (http://www-huber.embl.de/users/anders/HTSeq/). Only genes that had at least 10 reads in any given library were used in subsequent analysis. Normalization and differential expression was carried out using the DESeq26 Bioconductor (Huber W, et al. (2015) Nat Methods. 12(2):115-121) package with the R statistical programming environment (www.r-project.org). […] 694 miRNAs were initially examined with respect to QC, genotype, RTV effects, and ISRIB effects. This subset was the “Full miRNA” subset. FIG. 9A and FIG. 9B show the RTV effect on EV composition in DYT1 cells compared to WT cells for 279 miRNAs, respectively. […] Beginning with the 694 miRNAs in the “Full miRNA” subset, more than 60 molecules were detected in either WT cells or DYT1 cells (WT or Het UMI>60). […] The candidate miRNAs were ranked by the sum of genotype-dependent absolute Z-scores and RTV-induced absolute Z-scores (Abs Z Score Sum (Geno+RTV)). This subset was the “miRNA-Ritonavir Therapeutic Efficacy” subset and contained 201 miRNAs.
# [1] = sum of genotype and RTV absolute Z-scores
structure (smiles),measurement,setting,value
"CC(C)c1nc(CN(C)C(=O)N[C@H](C(=O)N[C@@H](Cc2ccccc2)C[C@H](O)[C@H](Cc2ccccc2)NC(=O)OCc2cncs2)C(C)C)cs1 [RTV, Ritonavir]",RTVvHet Z Score,mmu-miR-183-5p,3.42
same,Abs Z Score Sum (Geno + RTV),mmu-miR-183-5p,5.55
same,RTV Direction Opposite dE?,mmu-miR-183-5p,yes
same,RTVvHet Z Score,mmu-miR-185-5p,0.53
same,RTVvHet Z Score,mmu-miR-186-5p,0.33
same,RTVvHet Z Score,mmu-miR-187-3p,1.13
same,Abs Z Score Sum (Geno + RTV),mmu-miR-187-3p,3.96
same,RTV Direction Opposite dE?,mmu-miR-187-3p,yes
same,RTVvHet Z Score,mmu-miR-188-5p,0.34
same,RTVvHet Z Score,mmu-miR-190b-5p,0.28
same,RTVvHet Z Score,mmu-miR-191-5p,0.28
same,RTVvHet Z Score,mmu-miR-192-5p,0.54
same,Abs Z Score Sum (Geno + RTV),mmu-miR-192-5p,3.38
same,RTV Direction Opposite dE?,mmu-miR-192-5p,yes
same,RTVvHet Z Score,mmu-miR-194-5p,0.46
same,RTVvHet Z Score,mmu-miR-199a-3p,1.07
same,RTV Direction Opposite dE?,mmu-miR-199a-3p,yes
same,RTVvHet Z Score,mmu-miR-199b-3p,1.17
same,RTV Direction Opposite dE?,mmu-miR-199b-3p,yes
same,RTVvHet Z Score,mmu-miR-206-3p,0.20
same,RTVvHet Z Score,mmu-miR-214-5p,1.09
same,RTVvHet Z Score,mmu-miR-219a-5p,1.08
same,RTVvHet Z Score,mmu-miR-223-3p,−0.59
same,RTVvHet Z Score,mmu-miR-224-5p,0.28
same,RTVvHet Z Score,mmu-miR-296-3p,3.08
same,Abs Z Score Sum (Geno + RTV),mmu-miR-296-3p,5.10
same,RTV Direction Opposite dE?,mmu-miR-296-3p,yes
same,RTVvHet Z Score,mmu-miR-298-5p,3.59
same,Abs Z Score Sum (Geno + RTV),mmu-miR-298-5p,6.72
same,RTV Direction Opposite dE?,mmu-miR-298-5p,yes
same,RTVvHet Z Score,mmu-miR-299a-3p,1.31
same,RTVvHet Z Score,mmu-miR-301a-3p,1.45
same,RTVvHet Z Score,mmu-miR-301b-3p,1.05
same,RTVvHet Z Score,mmu-miR-320-3p,0.76
same,RTVvHet Z Score,mmu-miR-322-5p,0.75
same,RTVvHet Z Score,mmu-miR-324-3p,0.82
same,RTVvHet Z Score,mmu-miR-335-Sp,1.02
same,RTVvHet Z Score,mmu-miR-340-5p,1.09
same,RTVvHet Z Score,mmu-miR-344-3p,1.30
same,Abs Z Score Sum (Geno + RTV),mmu-miR-344-3p,4.24
same,RTV Direction Opposite dE?,mmu-miR-344-3p,yes
same,RTVvHet Z Score,mmu-miR-350-3p,0.41
same,RTVvHet Z Score,mmu-miR-361-5p,0.71
same,RTVvHet Z Score,mmu-miR-362-3p,1.05
same,RTV Direction Opposite dE?,mmu-miR-362-3p,yes
same,RTVvHet Z Score,mmu-miR-362-5p,0.83
same,Abs Z Score Sum (Geno + RTV),mmu-miR-362-5p,3.62
same,RTV Direction Opposite dE?,mmu-miR-362-5p,yes
same,RTVvHet Z Score,mmu-miR-378a-3p,1.25
same,RTVvHet Z Score,mmu-miR-450a-5p,0.39
same,RTVvHet Z Score,mmu-miR-450b-3p,0.31
same,RTVvHet Z Score,mmu-miR-451a,−1.37
same,RTVvHet Z Score,mmu-miR-483-5p,0.01
same,RTVvHet Z Score,mmu-miR-500-3p,1.09
same,RTVvHet Z Score,mmu-miR-503-3p,0.99
same,RTVvHet Z Score,mmu-miR-532-5p,0.52
same,Abs Z Score Sum (Geno + RTV),mmu-miR-532-5p,3.77
same,RTV Direction Opposite dE?,mmu-miR-532-5p,yes
same,RTVvHet Z Score,mmu-miR-542-3p,0.81
same,RTVvHet Z Score,mmu-miR-542-5p,2.00
same,Abs Z Score Sum (Geno + RTV),mmu-miR-542-5p,7.20
same,RTV Direction Opposite dE?,mmu-miR-542-5p,yes
same,RTVvHet Z Score,mmu-miR-582-3p,0.20
same,RTVvHet Z Score,mmu-miR-652-3p,0.93
same,RTVvHet Z Score,mmu-miR-671-5p,1.76
same,RTV Direction Opposite dE?,mmu-miR-671-5p,yes
same,RTVvHet Z Score,mmu-miR-700-3p,0.49
same,RTVvHet Z Score,mmu-miR-708-5p,1.28
same,RTVvHet Z Score,mmu-miR-872-5p,0.68
same,RTVvHet Z Score,mmu-miR-1291,1.91
same,Abs Z Score Sum (Geno + RTV),mmu-miR-1291,3.34
same,RTV Direction Opposite dE?,mmu-miR-1291,yes
same,RTVvHet Z Score,mmu-miR-1843a-5p,0.28
same,RTVvHet Z Score,mmu-miR-3102-3p,0.95
same,RTVvHet Z Score,mmu-miR-3535,1.43
same,Abs Z Score Sum (Geno + RTV),mmu-miR-3535,3.67
same,RTV Direction Opposite dE?,mmu-miR-3535,yes
same,RTVvHet Z Score,mmu-miR-5121,2.65
same,Abs Z Score Sum (Geno + RTV),mmu-miR-5121,4.47
same,RTV Direction Opposite dE?,mmu-miR-5121,yes
same,Abs Z Score Sum (Geno + RTV),mmu-miR-30h-5p,3.25
same,RTV Direction Opposite dE?,mmu-miR-30h-5p,yes
same,RTVvHet Z Score,mmu-miR-30d-5p,0.70
same,RTVvHet Z Score,mmu-miR-344d-3p,1.98
same,Abs Z Score Sum (Geno + RTV),mmu-miR-344d-3p,4.51
same,RTV Direction Opposite dE?,mmu-miR-344d-3p,yes
same,mmu-miR-147-5p: Abs Z Score Sum (Geno + RTV),[1],0.20
same,mmu-miR-181a-1-3p: Abs Z Score Sum (Geno + RTV),[1],0.18
same,mmu-miR-331-5p: Abs Z Score Sum (Geno + RTV),[1],0.00
same,mmu-miR-668-3p: Abs Z Score Sum (Geno + RTV),[1],0.42
same,mmu-miR-1930-5p: Abs Z Score Sum (Geno + RTV),[1],0.38
same,mmu-miR-1943-5p: Abs Z Score Sum (Geno + RTV),[1],0.23
same,mmu-miR-1955-5p: Abs Z Score Sum (Geno + RTV),[1],0.00
same,mmu-miR-3072-5p: Abs Z Score Sum (Geno + RTV),[1],0.38
same,mmu-miR-3076-3p: Abs Z Score Sum (Geno + RTV),[1],0.00
same,mmu-miR-3088-3p: Abs Z Score Sum (Geno + RTV),[1],0.18
same,mmu-miR-6936-3p: Abs Z Score Sum (Geno + RTV),[1],0.38
same,mmu-miR-7224-3p: Abs Z Score Sum (Geno + RTV),[1],0.22
same,mmu-miR-467d-3p: Abs Z Score Sum (Geno + RTV),[1],0.32
